US9023789B2, “Amylin analogs and pharmaceutical compositions thereof” (Novo Nordisk A/S, priority 2012, dated 2015)
pEC50, pIC50: −log10 of the molar value. Numbered stars: 1 amine (or outer) side, 2 acyl side, 3 side chain; on linkers, the order of the positions; unused ones are H or OH. Bridge positions count the residues as written; N and C are the ends. Side chains are listed from the residue outwards. Peptide text beside a SMILES is read from it. * marks the point of attachment. C20 diacid = O=C(O)CCCCCCCCCCCCCCCCCCC(=O)*; γGlu = O=C(O)[C@H](CCC(=O)[*:2])N[*:1]; AEEA = NCCOCCOCC(=O)O

How the values were obtained:
[1] = target: T1, human amylin 3(a) receptor (human calcitonin receptor + RAMP-3) in BHK570 cells (Homo sapiens, UniProt O60896+P30988); assay: ASSAY (II)a functional assay, human amylin receptor (CRE luciferase); type: cell-based; settings: for pEC50: human amylin receptor functional potency, assay (II), read-out: hAmylin-R funct. EC50
T1 construct: expressed in transfected cells
Procedure, shortened: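 Functional agonism was measured by CRE-luciferase reporter luminescence in BHK cells bearing calcitonin receptor, or calcitonin receptor plus RAMP-3 as the amylin 3(a) receptor. Stimulation lasted 3 hours at 37° C.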

[2] = ASSAY (III) ThT fibrillation assay for physical stability; type: physicochemical
Procedure, shortened: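 Physical stability scored by ThT fluorescence (444 nm excitation, 485 nm emission) tracked every 20 min during 37 °C incubation with 960 rpm shaking, ThT at 1 μM final. Values are replicate means with SD at chosen times; HPLC against pramlintide standard gives initial and post-assay soluble concentrations.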

[3] = target: T2, human amylin receptor (membranes from Amylin 3(a)/CRE-luc cells) (Homo sapiens, UniProt O60896+P30988); assay: ASSAY (V) binding to the human amylin receptor (SPA, 125I-rat amylin); settings: for pIC50: Table 4, read-out: hAmylin-R bind IC50;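 as to all read-outs here: competition binding of cell membranes (35 ng/µL) mixed with SPA beads in 384-well plates at 40 µL total volume, read by scintillation counting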
T2 construct: expressed in transfected cells
T2 sequence (P30988 25-474): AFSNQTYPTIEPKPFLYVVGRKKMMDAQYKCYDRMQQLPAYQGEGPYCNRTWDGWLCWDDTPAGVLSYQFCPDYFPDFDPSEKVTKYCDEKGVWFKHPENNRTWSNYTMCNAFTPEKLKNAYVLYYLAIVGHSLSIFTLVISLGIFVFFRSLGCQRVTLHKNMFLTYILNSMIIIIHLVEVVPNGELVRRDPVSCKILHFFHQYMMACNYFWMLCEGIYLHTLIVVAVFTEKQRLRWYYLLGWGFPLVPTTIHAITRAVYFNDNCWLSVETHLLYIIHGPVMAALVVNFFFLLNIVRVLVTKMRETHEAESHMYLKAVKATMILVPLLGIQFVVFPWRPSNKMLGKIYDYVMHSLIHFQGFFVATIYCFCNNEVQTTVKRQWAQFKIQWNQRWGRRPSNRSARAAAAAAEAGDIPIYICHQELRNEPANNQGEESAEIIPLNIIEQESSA
T2 sequence (O60896 24-148 partner): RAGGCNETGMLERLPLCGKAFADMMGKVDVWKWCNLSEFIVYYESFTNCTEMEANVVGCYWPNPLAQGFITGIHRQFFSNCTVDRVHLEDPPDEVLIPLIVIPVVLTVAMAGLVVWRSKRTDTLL

[4] = hCTR funct. EC50 divided by hAmylin-R funct. EC50
[5] = hCTR funct. EC50 over hAmylin-R funct. EC50
[6] = human functional selectivity: hCTR funct. EC50 / hAmylin-R funct. EC50
[7] = Table 5, selectivity, hCTR bind IC50 / hAmylin-R bind IC50
[8] = Table 5a, selectivity, hCTR bind IC50 / hAmylin-R bind IC50
[9] = Table 5b, selectivity, hCTR bind IC50 / hAmylin-R bind IC50
[10] = Table 5c, selectivity, hCTR bind IC50 / hAmylin-R bind IC50
[11] = Table 7, human binding selectivity, included for comparison
[12] = Table 7a (preferred compounds), human binding selectivity, included for comparison
[13] = ratio of human calcitonin receptor binding IC50 to human amylin receptor binding IC50

| SMILES | Ratio hCT/hAmylin funct. [1, 4] | Ratio hCT/hAmylin funct. [1, 5] | pEC50 [1] | Ratio hCT/hAmylin funct. [1, 6] | ThT pH 4.0 lag time (h) [2] | pIC50 [3] | Ratio hCT/hAmylin binding [3, 7] | Ratio hCT/hAmylin binding [3, 8] | Ratio hCT/hAmylin binding [3, 9] | Ratio hCT/hAmylin binding [3, 10] | Ratio hCT/hAmylin binding [3, 11] | Ratio hCT/hAmylin binding [3, 12] | Ratio hCT/hAmylin binding [3, 13] |
| --- | --- | --- | --- | --- | --- | --- | --- | --- | --- | --- | --- | --- | --- |
| CC[C@H](C)[C@H](NC(=O)[C@H](C)NC(=O)CNC(=O)[C@H](Cc1ccccc1)NC(=O)[C@H](CC(N)=O)NC(=O)[C@@H]1CCCN1C(=O)[C@H](CO)NC(=O)[C@H](CO)NC(=O)[C@H](Cc1c[nH]cn1)NC(=O)[C@H](CCCNC(=N)N)NC(=O)[C@H](CC(C)C)NC(=O)[C@H](Cc1ccccc1)NC(=O)[C@H](Cc1c[nH]cn1)NC(=O)[C@H](C)NC(=O)[C@H](CC(C)C)NC(=O)[C@H](CCCNC(=N)N)NC(=O)[C@H](CCC(N)=O)NC(=O)[C@@H](NC(=O)[C@H](C)NC(=O)[C@@H]1CSSC[C@H](NC(=O)[C@@H](N)CCCCNC(=O)CC[C@H](NC(=O)CCCCCCCCCCCCCCCCCCC(=O)O)C(=O)O)C(=O)N[C@@H](CC(N)=O)C(=O)N[C@@H]([C@@H](C)O)C(=O)N[C@@H](C)C(=O)N[C@@H]([C@@H](C)O)C(=O)N1)[C@@H](C)O)C(=O)N1CCC[C@H]1C(=O)N[C@@H](CO)C(=O)N[C@@H](CO)C(=O)N[C@H](C(=O)N[C@@H](CC(N)=O)C(=O)N[C@H](C(=O)NCC(=O)N[C@@H](CO)C(=O)N[C@@H](CC(N)=O)C(=O)N[C@H](C(=O)N[C@@H](Cc1ccc(O)cc1)C(N)=O)[C@@H](C)O)C(C)C)[C@@H](C)O [Example 70] (H-K([γGlu-C20 diacid])CNTATCATQRLAHFLRHSSPNFGAIPSSTNVGSNTY-NH2; disulfide 2-7; N-terminus assumed) | 17.9 | 17.9 | 10.40 | 17.9 | 7 h | 9.77 | 60.8 | 60.8 | 60.8 | 60.8 | 60.8 | 60.8 | 60.8 |
| CC[C@H](C)[C@H](NC(=O)[C@H](C)NC(=O)CNC(=O)[C@H](Cc1ccccc1)NC(=O)[C@H](CC(N)=O)NC(=O)[C@@H]1CCCN1C(=O)[C@H](CO)NC(=O)[C@H](CO)NC(=O)[C@H](Cc1c[nH]cn1)NC(=O)[C@H](CCCNC(=N)N)NC(=O)[C@H](CC(C)C)NC(=O)[C@H](Cc1ccccc1)NC(=O)CNC(=O)[C@H](C)NC(=O)[C@H](CC(C)C)NC(=O)[C@H](CCCNC(=N)N)NC(=O)[C@H](CCC(N)=O)NC(=O)[C@@H](NC(=O)[C@H](C)NC(=O)[C@@H]1CSSC[C@H](NC(=O)[C@@H](N)CCCCNC(=O)COCCOCCNC(=O)CC[C@H](NC(=O)CCCCCCCCCCCCCCCCCCC(=O)O)C(=O)O)C(=O)N[C@@H](CC(N)=O)C(=O)N[C@@H]([C@@H](C)O)C(=O)N[C@@H](C)C(=O)N[C@@H]([C@@H](C)O)C(=O)N1)[C@@H](C)O)C(=O)N1CCC[C@H]1C(=O)N[C@@H](CO)C(=O)N[C@@H](CO)C(=O)N[C@H](C(=O)N1CCC[C@H]1C(=O)N[C@H](C(=O)NCC(=O)N[C@@H](CO)C(=O)N[C@@H](CC(N)=O)C(=O)N[C@H](C(=O)N[C@@H](Cc1ccc(O)cc1)C(N)=O)[C@@H](C)O)C(C)C)[C@@H](C)O [Example 71] (H-K([AEEA-γGlu-C20 diacid])CNTATCATQRLAGFLRHSSPNFGAIPSSTPVGSNTY-NH2; disulfide 2-7) | 9.4 |  |  | 9.4 | 11 h |  | 32.0 | 32.0 | 32.0 | 32.0 | 32.0 | 32.0 | 32.0 |
| CC[C@H](C)[C@H](NC(=O)[C@H](C)NC(=O)CNC(=O)[C@H](Cc1ccccc1)NC(=O)[C@H](CC(N)=O)NC(=O)[C@@H]1CCCN1C(=O)[C@H](CO)NC(=O)[C@H](CO)NC(=O)[C@H](Cc1c[nH]cn1)NC(=O)[C@H](CCCNC(=N)N)NC(=O)[C@H](CC(C)C)NC(=O)[C@H](Cc1ccccc1)NC(=O)[C@H](C)NC(=O)[C@H](C)NC(=O)[C@H](CC(C)C)NC(=O)[C@H](CCCNC(=N)N)NC(=O)[C@H](CCC(N)=O)NC(=O)[C@@H](NC(=O)[C@H](C)NC(=O)[C@@H]1CSSC[C@H](NC(=O)[C@@H](N)CCCCNC(=O)COCCOCCNC(=O)CC[C@H](NC(=O)CCCCCCCCCCCCCCCCCCC(=O)O)C(=O)O)C(=O)N[C@@H](CC(N)=O)C(=O)N[C@@H]([C@@H](C)O)C(=O)N[C@@H](C)C(=O)N[C@@H]([C@@H](C)O)C(=O)N1)[C@@H](C)O)C(=O)N1CCC[C@H]1C(=O)N[C@@H](CO)C(=O)N[C@@H](CO)C(=O)N[C@H](C(=O)N1CCC[C@H]1C(=O)N[C@H](C(=O)NCC(=O)N[C@@H](CO)C(=O)N[C@@H](CC(N)=O)C(=O)N[C@H](C(=O)N[C@@H](Cc1ccc(O)cc1)C(N)=O)[C@@H](C)O)C(C)C)[C@@H](C)O [Example 72] (H-K([AEEA-γGlu-C20 diacid])CNTATCATQRLAAFLRHSSPNFGAIPSSTPVGSNTY-NH2; disulfide 2-7 (inferred); N-terminus assumed) | 44.9 | 44.9 | 9.97 | 44.9 | 13 h | 9.76 | 246.6 | 246.6 | 246.6 | 246.6 | 246.6 | 246.6 | 246.6 |
| CC[C@H](C)[C@H](NC(=O)[C@H](C)NC(=O)CNC(=O)[C@H](Cc1ccccc1)NC(=O)[C@H](CC(N)=O)NC(=O)[C@@H]1CCCN1C(=O)[C@H](CO)NC(=O)[C@H](CO)NC(=O)[C@H](Cc1c[nH]cn1)NC(=O)[C@H](CCCNC(=N)N)NC(=O)[C@H](CC(C)C)NC(=O)[C@H](Cc1ccccc1)NC(=O)[C@H](CO)NC(=O)[C@H](C)NC(=O)[C@H](CC(C)C)NC(=O)[C@H](CCCNC(=N)N)NC(=O)[C@H](CCC(N)=O)NC(=O)[C@@H](NC(=O)[C@H](C)NC(=O)[C@@H]1CSSC[C@H](NC(=O)[C@@H](N)CCCCNC(=O)COCCOCCNC(=O)CC[C@H](NC(=O)CCCCCCCCCCCCCCCCCCC(=O)O)C(=O)O)C(=O)N[C@@H](CC(N)=O)C(=O)N[C@@H]([C@@H](C)O)C(=O)N[C@@H](C)C(=O)N[C@@H]([C@@H](C)O)C(=O)N1)[C@@H](C)O)C(=O)N1CCC[C@H]1C(=O)N[C@@H](CO)C(=O)N[C@@H](CO)C(=O)N[C@H](C(=O)N1CCC[C@H]1C(=O)N[C@H](C(=O)NCC(=O)N[C@@H](CO)C(=O)N[C@@H](CC(N)=O)C(=O)N[C@H](C(=O)N[C@@H](Cc1ccc(O)cc1)C(N)=O)[C@@H](C)O)C(C)C)[C@@H](C)O [Example 73] (H-K([AEEA-γGlu-C20 diacid])CNTATCATQRLASFLRHSSPNFGAIPSSTPVGSNTY-NH2; disulfide 2-7 (inferred)) | 11.3 | 11.3 |  | 11.3 | 12 h |  | 51.7 | 51.7 | 51.7 | 51.7 | 51.7 | 51.7 | 51.7 |
